Results taken from patent publication US20120142731A1, “METHODS OF INHIBITING VIRAL INFECTION” (Functional Genetics, Inc., priority 2007, published 2012).

Tests used:
Stability to light = assay type: physicochemical
Excerpt: R24 is subject to straight forward synthesis. […] The range of carriers available, is therefore, quite large. As a consequence, the compositions and methods of this invention embrace the FGI-104 compounds as neat solids, as pharmaceutically suitable preparations, in a pharmaceutically acceptable carrier of a variety of types. Compositions of the present invention may further comprise a pharmaceutical composition comprising a therapeutically effective amount of any of the small molecules (or combinations of small molecules) described above together with other materials, such as a suitable carrier, excipients, etc., for administration to a human or animal experiencing a viral infection or at risk of a viral infection. Such pharmaceutical compositions may be in solid, gel or liquid form and may be administered as appropriate to an individual IV, IM, IP or parenterally, topically, subcutaneously, orally, or through mucosal surfaces and routes (including, for example, rectal and vaginal suppositories). The exact dosage corresponding to a therapeutically effective amount will vary from mammal to mammal and virus to virus. […]

HCV [1] = experiment: Viral release assay, HCV from Huh1 cells
HCV [2] = assay type: cell-based, Hepatitis C virus
cowpox = experiment: organism not typed; assay type: cell-based; conditions: Vero
[3] = test system: Venezuelan Equine Encephalomyelitis (VEE); assay type: cell-based; conditions: 25 uM, administered 3 days post-infection
HBV [4] = experiment: HBV primary assay in HepG2 cells (virion DNA); assay type: cell-based, Hepatitis B virus; conditions: blinded NIAID study
HBV [5] = experiment: Viral release assay, HBV from Huh1 cells; assay type: cell-based, Hepatitis B virus
[6] = 28 day course of administration; cited from earlier work
N5A of HCV = assay type: cell-based, Hepatitis C virus; conditions: 2.5 uM
in vitro = conditions: African green monkey
replicon formation = assay type: cell-based
PRRS virus = experiment: PRRS inhibition in primary porcine lung alveolar macrophages; assay type: cell-based, porcine reproductive and respiratory syndrome (PRRS) virus; conditions: administration 72 hours post infection
Excerpt: As noted above, important mammalian hosts treatable by this family of compounds include not only humans, but veterinarily and commercially important animals. Although monkeys, dogs, cats, mice, rats, horses, rabbits, cattle, sheep and goats are all important hosts to be treated for viral infection, pigs may be the dominant commercial animal, worldwide. The United States Department of Agriculture has characterized PRRS virus as a significant, worldwide, agricultural concern related to animal health and causes large economic losses to producers, and labeled a biosecurity threat. (Project 2008-2017).

HIV-1 = HIV-1 luciferase assay in infected MT-4 cells
[7] = mammalian models; oral, IP, IV administration; cited from earlier work
malaria = conditions: cited from earlier work

| SMILES | stability to light (Stability to light) | preventing viral release (HCV [1]) | inhibition of the virus (luciferase signal) (HCV [2]) [%] | EC50 (cowpox) [µM] | inhibition of VEE [3] | activity as measured by virion DNA (HBV [4]) | preventing viral release (HBV [5]) | chromosomal instability [6] | signal protein N5A of HCV in protein blot (N5A of HCV) | CC50 (in vitro) [µM] | inhibition of replicon formation (replicon formation) | effectiveness as reflected by the EC90 value (PRRS virus) | EC50 (HIV-1; Human immunodeficiency virus 1, MT4, 72 h) [µM] | luciferase detection (HIV-1; MT-4 cells, relatively low dose, 72 hours post infection) | tolerability [7] | efficacy against chloroquinoline-resistant malarial strains (malaria; chloroquinoline-resistant strains) | efficacy against the parasite based disease (malaria) (malaria; compared with chloroquinoline) |
| --- | --- | --- | --- | --- | --- | --- | --- | --- | --- | --- | --- | --- | --- | --- | --- | --- | --- |
| CC(C)(C)NCc1cc(Nc2ccnc3cc(Cl)ccc23)cc(-c2ccc(Cl)cc2)c1O [Compound R24, 4′-chloro-5-[(7-chloro-4-quinolinyl)amino]-3-(1,1-dimethylethylamino)methyl [1,1′-biphenyl]-2-ol] | instability to light | effective in preventing viral release | 100 | 0.25 | dramatic inhibition | high level of activity | effective in preventing viral release | not to induce significant chromosomal instability | completely missing | > 25 | does little to inhibit replicon formation | spectacular effectiveness | 8.5 | effective zero | well tolerated |  |  |
| CC(C)(C)NCc1cc(Nc2ccnc3cc(Cl)ccc23)cc(-c2ccc(Cl)cc2)c1O.Cl.Cl [WR-228,258 2HCl, 4′-chloro-5-[(7-chloro-4-quinolinyl)amino]-3-(1,1-dimethylethylamino)methyl[1,1′-biphenyl]-2-ol dihydrochloride] |  |  |  |  |  |  |  |  |  |  |  |  |  |  | well tolerated | not effective | effective against the parasite based disease at about the same level as the dominant treatment |
